Measurements published in ChEMBL document CHEMBL5244209, “Antiplasmodial and antimalarial activities of quinolone derivatives: An overview” (Eur J Med Chem, 2018).
In brackets after ≈: the same amount, converted by molar mass.

Experiments:
Plasmodium falciparum [1] = assay: Antimalarial activity against Plasmodium falciparum Dd2; format: functional, organism-based
Plasmodium berghei = assay: Antiplasmodial activity against liver stage Plasmodium berghei ANKA infected in human HepG2 cells measured after 44 hrs; format: functional, organism-based; details: HepG2, 44 h
Plasmodium falciparum [2] = assay: Antimalarial activity against Antimalarial activity against chloroquine-sensitive Plasmodium falciparum FCR-3; format: functional, organism-based
Plasmodium falciparum [3] = assay: Antimalarial activity against chloroquine-sensitive Plasmodium falciparum 3D7; format: functional, organism-based
FM3A = assay: Cytotoxicity against mouse FM3A cells; format: functional, cell-based
Plasmodium falciparum [4] = assay: Antimalarial activity against chloroquine-sensitive Plasmodium falciparum FCC1 measured after 48 hrs; format: functional, organism-based; details: FCC1, 48 h
Plasmodium falciparum [5] = assay: Antimalarial activity against chloroquine-resistant Plasmodium falciparum VNS measured after 48 hrs; format: functional, organism-based
Plasmodium falciparum [6] = assay: Antiplasmodial activity against Plasmodium falciparum Tm90-C2B infected in human Erythrocyte measured after 72 hrs by SYBR green fluorescence dye based microplate reader analysis; format: functional, organism-based
Plasmodium falciparum [7] = assay: Antiplasmodial activity against Plasmodium falciparum D6 infected in human Erythrocyte measured after 72 hrs by SYBR green fluorescence dye based microplate reader analysis; format: functional, organism-based
Plasmodium falciparum [8] = assay: Antiplasmodial activity against Plasmodium falciparum Dd2 infected in human Erythrocyte measured after 72 hrs by SYBR green fluorescence dye based microplate reader analysis; format: functional, organism-based
Plasmodium falciparum [9] = assay: Antiplasmodial activity against chloroquine-resistant Plasmodium falciparum Fcb1; format: functional, organism-based
Plasmodium falciparum [10] = assay: Antimalarial activity against blood stage chloroquine-sensitive Plasmodium falciparum NF54-R infected in erythrocytes assessed as reduction in parasite growth preincubated for 72 hrs followed by addition of [3H]Hypoxanthine and measured after 24 hrs by liquid scintillation counting method; format: functional, organism-based; details: Erythrocyte
Plasmodium falciparum [11] = assay: Antiplasmodial activity against chloroquine-sensitive Plasmodium falciparum K1 measured after 96 hrs; format: functional
Plasmodium falciparum [12] = assay: Antiplasmodial activity against chloroquine-resistant Plasmodium falciparum; format: functional, organism-based
Plasmodium falciparum [13] = assay: Antiplasmodial activity against asynchronous Plasmodium falciparum K1; format: functional, organism-based
Plasmodium yoelii yoelii = assay: Antimalarial activity against hepatic stage Plasmodium yoelii yoelii 265 BY for 48 hrs with media renew every 24 hrs; format: functional, organism-based
Plasmodium falciparum [14] = assay: Antiplasmodial activity against chloroquine-sensitive Plasmodium falciparum FC measured after 96 hrs; format: functional
Plasmodium falciparum [15] = assay: Antiplasmodial activity against chloroquine-sensitive Plasmodium falciparum; format: functional, organism-based
Plasmodium falciparum [16] = assay: Antiplasmodial activity against chloroquine-resistant Plasmodium falciparum K1 measured after 48 hrs; format: functional
Plasmodium falciparum [17] = assay: Antiplasmodial activity against synchronized Plasmodium falciparum 3D7; format: functional, organism-based
Plasmodium falciparum [18] = assay: Antiplasmodial activity against asynchronous Plasmodium falciparum CS2; format: functional, organism-based
Plasmodium falciparum [19] = assay: Antiplasmodial activity against asynchronous Plasmodium falciparum 3D7; format: functional, organism-based
Plasmodium falciparum [20] = assay: Antiplasmodial activity against chloroquine-sensitive Plasmodium falciparum FC measured after 48 hrs; format: functional
Plasmodium falciparum [21] = assay: Antiplasmodial activity against synchronized Plasmodium falciparum CS2; format: functional, organism-based
Plasmodium falciparum [22] = assay: Antiplasmodial activity against synchronized Plasmodium falciparum K1; format: functional, organism-based
Plasmodium falciparum [23] = assay: Antimalarial activity against blood stage chloroquine-sensitive Plasmodium falciparum 3D7 infected in erythrocytes assessed as reduction in parasite growth preincubated for 72 hrs followed by addition of [3H]Hypoxanthine and measured after 24 hrs by liquid scintillation counting method; format: functional, organism-based; details: 3D7, Erythrocyte
Plasmodium falciparum [24] = assay: Antiplasmodial activity against chloroquine-resistant Plasmodium falciparum FCR3; format: functional, organism-based
Plasmodium falciparum [25] = assay: Antiplasmodial activity against chloroquine-sensitive Plasmodium falciparum 3D7; format: functional, organism-based
Plasmodium falciparum [26] = assay: Antiplasmodial activity against chloroquine-resistant Plasmodium falciparum Palo Alto; format: functional, organism-based
Plasmodium falciparum [27] = assay: Antiplasmodial activity against chloroquine-resistant Plasmodium falciparum W2; format: functional, organism-based
Plasmodium falciparum [28] = assay: Antiplasmodial activity against chloroquine-resistant Plasmodium falciparum Bres1; format: functional, organism-based
Plasmodium falciparum [29] = assay: Antiplasmodial activity against chloroquine-sensitive Plasmodium falciparum 3D7 infected in human erythrocyte incubated for 72 hrs by SYBR green I staining based fluorescence assay; format: functional, organism-based; details: 3D7, Erythrocyte

## COc1ccc2c(=O)c(-c3ccc(Oc4ccc(OC(F)(F)F)cc4)cc3)c(C)[nH]c2c1
Plasmodium falciparum [1]
  IC50: 0.00385 µM

## COc1cc2[nH]c(C)c(-c3ccccc3C)c(=O)c2cc1Cl
Plasmodium berghei
  IC50: 0.00282 µM

## COc1cc2[nH]c(C)c(-c3ccc(C(F)(F)F)cc3)c(=O)c2cc1Cl
Plasmodium berghei
  IC50: 0.00307 µM

## Cn1cc(C(=O)N/N=C/c2ccncc2)c(=O)c2cc(F)ccc21
Plasmodium falciparum [2]
  IC50: > 100 µM

## O=C(O)/C(=C\n1cc(C(=O)O)c(=O)c2cc(F)ccc21)c1cccnc1
Plasmodium falciparum [3]
  IC50: 24 µM
FM3A
  IC50: > 100 µM

## CCOC(=O)/C(=C\n1cc(C(=O)O)c(=O)c2cc(F)ccc21)c1ccccn1
Plasmodium falciparum [3]
  IC50: 21 µM
FM3A
  IC50: > 100 µM

## CCOC(=O)c1cn(/C=C(\C(=O)O)c2cccnc2)c2ccc(F)cc2c1=O
Plasmodium falciparum [3]
  IC50: 29 µM
FM3A
  IC50: > 100 µM

## Cn1cc(C(=O)N/N=C/c2ccccn2)c(=O)c2cc(C(F)(F)F)ccc21
Plasmodium falciparum [2]
  IC50: 6.2 µM

## Cn1cc(C(=O)N/N=C/c2ccccn2)c(=O)c2cc(F)ccc21
Plasmodium falciparum [2]
  IC50: 3.3 µM

## CCOC(=O)/C(=C\n1cc(C(=O)OCC)c(=O)c2cc(F)ccc21)c1ccccn1
Plasmodium falciparum [3]
  IC50: 21 µM
FM3A
  IC50: > 100 µM

## Cn1cc(C(=O)N/N=C/c2cccnc2)c(=O)c2cc(C(F)(F)F)ccc21
Plasmodium falciparum [2]
  IC50: > 100 µM

## CCOC(=O)/C(=C\n1cc(C(=O)OCC)c(=O)c2cc(F)ccc21)c1ccncc1
Plasmodium falciparum [3]
  IC50: 8.2 µM
FM3A
  IC50: > 24 µM

## CCOC(=O)/C(=C\n1cc(C(=O)OCC)c(=O)c2cc(F)ccc21)c1cccnc1
Plasmodium falciparum [3]
  IC50: 26 µM
FM3A
  IC50: 100 µM

## Cn1cc(C(=O)N/N=C/c2cccnc2)c(=O)c2cc(F)ccc21
Plasmodium falciparum [2]
  IC50: > 100 µM

## Cn1cc(C(=O)N/N=C/c2ccncc2)c(=O)c2cc(C(F)(F)F)ccc21
Plasmodium falciparum [2]
  IC50: > 100 µM

## CNn1cc(C(=O)O)c(=O)c2cc(F)c(N3CCN(C)CC3)cc21 [AMIFLOXACIN]
Plasmodium falciparum [4]
  IC50: 550 µM
Plasmodium falciparum [5]
  IC50: 870 µM

## C[C@@H]1CC[C@H]2[C@@H](C)C(=O)O[C@@H]3O[C@@]4(C)CC[C@@H]1[C@]32OO4 [ARTEMISININ]
Plasmodium falciparum [6]
  IC50: 0.0021 µM
Plasmodium falciparum [7]
  IC50: 0.00081 µM
Plasmodium falciparum [8]
  IC50: 0.0006 µM

## O=C1C(O)=C([C@H]2CC[C@H](c3ccc(Cl)cc3)CC2)C(=O)c2ccccc21 [ATOVAQUONE]
Plasmodium falciparum [6]
  IC50: 5.09 µM
Plasmodium falciparum [7]
  IC50: 0.0003 µM
Plasmodium falciparum [8]
  IC50: 0.0005 µM

## CC(C)=CCC/C(C)=C/CC/C(C)=C/Cc1c(C)[nH]c2ccccc2c1=O [AURACHIN D]
Plasmodium falciparum [9]
  IC50: 0.04 µg/mL (≈ 0.11 µM)

## CCN(CC)CCCC(C)Nc1ccnc2cc(Cl)ccc12 (stereo not given) [CHLOROQUINE]
Plasmodium berghei
  IC50: > 0.0012 µM

## O=C(O)c1cn(C2CC2)c2cc(N3CCNCC3)c(F)cc2c1=O [CIPROFLOXACIN]
Plasmodium falciparum [10]
  IC50: 3.4 µg/mL (≈ 10.3 µM)
Plasmodium falciparum [11]
  MIC: 4.4 µg/mL (≈ 13.3 µM)
Plasmodium falciparum [12]
  IC50: 6.38 µg/mL (≈ 19.3 µM)
Plasmodium falciparum [13]
  IC50: 38 µM
Plasmodium yoelii yoelii
  IC50: 44 µg/mL (≈ 133 µM)
Plasmodium falciparum [4]
  IC50: 260 µM
Plasmodium falciparum [14]
  MIC: 2.8 µg/mL (≈ 8.45 µM)
Plasmodium falciparum [15]
  IC50: 6.38 µg/mL (≈ 19.3 µM)
Plasmodium falciparum [16]
  MIC: 27.2 µg/mL (≈ 82.1 µM)
Plasmodium falciparum [17]
  IC50: 31 µM
Plasmodium falciparum [18]
  IC50: 24 µM
Plasmodium falciparum [19]
  IC50: 31 µM
Plasmodium falciparum [20]
  MIC: 28.1 µg/mL (≈ 84.8 µM)
Plasmodium falciparum [5]
  IC50: 380 µM
Plasmodium falciparum [21]
  IC50: 20 µM
Plasmodium falciparum [22]
  IC50: 32 µM

## CCn1cc(C(=O)O)c(=O)c2cc(F)c(N3CCNCC3)nc21 [ENOXACIN]
Plasmodium falciparum [10]
  IC50: 1.4 µg/mL (≈ 4.37 µM)
Plasmodium falciparum [23]
  IC50: 38.8 µg/mL (≈ 121 µM)
Plasmodium yoelii yoelii
  IC50: > 100 µg/mL
Plasmodium falciparum [4]
  IC50: 800 µM
Plasmodium falciparum [5]
  IC50: 990 µM

## CCn1cc(C(=O)O)c(=O)c2cc(F)c(N3CCNCC3)cc21 [NORFLOXACIN]
Plasmodium falciparum [10]
  IC50: 6.7 µg/mL (≈ 21 µM)
Plasmodium falciparum [23]
  IC50: 17.2 µg/mL (≈ 53.9 µM)
Plasmodium falciparum [12]
  IC50: 11.2 µg/mL (≈ 35.2 µM)
Plasmodium falciparum [24]
  IC50: 58.6 µM
Plasmodium falciparum [13]
  IC50: 54 µM
Plasmodium yoelii yoelii
  IC50: 17.8 µg/mL (≈ 55.7 µM)
Plasmodium falciparum [25]
  IC50: 55.3 µM
Plasmodium falciparum [26]
  IC50: 54.1 µM
Plasmodium falciparum [4]
  IC50: 620 µM
Plasmodium falciparum [15]
  IC50: 11.2 µg/mL (≈ 35.2 µM)
Plasmodium falciparum [17]
  IC50: 55 µM
Plasmodium falciparum [18]
  IC50: 55 µM
Plasmodium falciparum [19]
  IC50: 66 µM
Plasmodium falciparum [27]
  IC50: 74.6 µM
Plasmodium falciparum [5]
  IC50: 510 µM
Plasmodium falciparum [21]
  IC50: 59 µM
Plasmodium falciparum [22]
  IC50: 67 µM

## CC1COc2c(N3CCN(C)CC3)c(F)cc3c(=O)c(C(=O)O)cn1c23 (stereo not given) [OFLOXACIN]
Plasmodium falciparum [10]
  IC50: 58.6 µg/mL (≈ 162 µM)
Plasmodium falciparum [23]
  IC50: 113 µg/mL (≈ 313 µM)
Plasmodium falciparum [12]
  IC50: 22.3 µg/mL (≈ 61.7 µM)
Plasmodium falciparum [24]
  IC50: 158 µM
Plasmodium yoelii yoelii
  IC50: 64 µg/mL (≈ 177 µM)
Plasmodium falciparum [28]
  IC50: 195 µM
Plasmodium falciparum [25]
  IC50: 152 µM
Plasmodium falciparum [26]
  IC50: 114 µM
Plasmodium falciparum [4]
  IC50: 1720 µM
Plasmodium falciparum [15]
  IC50: 22.3 µg/mL (≈ 61.7 µM)
Plasmodium falciparum [27]
  IC50: 112 µM
Plasmodium falciparum [5]
  IC50: 1770 µM

## CCn1cc(C(=O)O)c(=O)c2cc(F)c(N3CCN(C)CC3)cc21 [PEFLOXACIN]
Plasmodium falciparum [10]
  IC50: 6.5 µg/mL (≈ 19.5 µM)
Plasmodium falciparum [23]
  IC50: 83.7 µg/mL (≈ 251 µM)
Plasmodium yoelii yoelii
  IC50: 86.3 µg/mL (≈ 259 µM)
Plasmodium falciparum [4]
  IC50: 1300 µM
Plasmodium falciparum [5]
  IC50: 850 µM

## C=C[C@H]1CN2CC[C@H]1C[C@H]2[C@H](O)c1ccnc2ccc(OC)cc12 [QUININE]
Plasmodium falciparum [2]
  IC50: 0.11 µM
Plasmodium falciparum [29]
  IC50: 0.018 µM

## N[C@@H]1[C@H]2CN(c3nc4c(cc3F)c(=O)c(C(=O)O)cn4-c3ccc(F)cc3F)C[C@@H]12 [TROVAFLOXACIN]
Plasmodium falciparum [10]
  IC50: 9.2 µg/mL (≈ 22.1 µM)
Plasmodium falciparum [23]
  IC50: 9.6 µg/mL (≈ 23.1 µM)
Plasmodium falciparum [13]
  IC50: 33 µM
Plasmodium falciparum [17]
  IC50: 34 µM
Plasmodium falciparum [18]
  IC50: 34 µM
Plasmodium falciparum [19]
  IC50: 36 µM
Plasmodium falciparum [22]
  IC50: 18 µM
